ChEMBL document CHEMBL1154709, “Perspectives of P-glycoprotein modulating agents in oncology and neurodegenerative diseases: pharmaceutical, biological, and diagnostic potentials” (2010)

Key:
Homo sapiens [1] = assay: Increase in P-gp-substrate 99mTc]sestaMIBI accumulation in liver of human with metastatic cancer at 150 mg, iv by imaging analysis; assay type: functional
Homo sapiens [2] = assay: Increase in P-gp-substrate 99mTc]sestaMIBI accumulation in tumor and heart of human with metastatic cancer at 150 mg, iv by imaging analysis; assay type: functional

**Q.** Which Activity (Homo sapiens [1]) does the source give for `COc1cc2c(cc1OC)CN(CCc1ccc(NC(=O)c3cc(OC)c(OC)cc3NC(=O)c3cnc4ccccc4c3)cc1)CC2` [TARIQUIDAR] here?
**A.** Its Activity is 128%.

**Q.** What about the Activity (Homo sapiens [2]) of the same compound?
**A.** The Activity was 36%.
